Laboratory results published in patent US5622948A, “Pyrrole pyridazine and pyridazinone anti-inflammatory agents” (Syntex (U.S.A.) Inc., priority 1994, dated 1997).

Key:
[1] = molecular target: T1, COX II (Homo sapiens, UniProt P35354); assay: radiometric assay, COX II inhibition (human recombinant, baculovirus expressed, partially purified); type: biochemical; parameters: A 1.8 Kb DNA fragment containing the coding region of human COX II was generated by PCR; made in house; host or cells: Sf9 insect cells, baculovirus; details: radiometric assay, human recombinant baculovirus expressed enzyme; read-out: COX II IC50 (Table 2)
T1 sequence (P35354 18-604): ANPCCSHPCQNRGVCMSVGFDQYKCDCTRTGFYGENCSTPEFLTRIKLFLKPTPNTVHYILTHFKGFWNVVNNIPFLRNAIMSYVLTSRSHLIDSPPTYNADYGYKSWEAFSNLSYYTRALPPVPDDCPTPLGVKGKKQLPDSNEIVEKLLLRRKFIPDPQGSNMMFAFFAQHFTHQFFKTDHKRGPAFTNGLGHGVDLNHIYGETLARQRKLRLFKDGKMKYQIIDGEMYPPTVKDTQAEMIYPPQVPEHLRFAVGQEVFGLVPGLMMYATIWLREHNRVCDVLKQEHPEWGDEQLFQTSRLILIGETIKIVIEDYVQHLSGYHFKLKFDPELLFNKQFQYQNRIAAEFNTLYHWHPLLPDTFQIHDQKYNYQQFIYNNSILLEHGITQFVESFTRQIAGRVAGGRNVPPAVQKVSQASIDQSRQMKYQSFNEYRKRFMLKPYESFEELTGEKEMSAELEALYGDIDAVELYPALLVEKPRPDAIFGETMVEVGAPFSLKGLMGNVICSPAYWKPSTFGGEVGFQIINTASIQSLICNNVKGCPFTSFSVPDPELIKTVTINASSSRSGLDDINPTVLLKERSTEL
Experimental: (§1) Human prostaglandin G/H synthase I and II ("COX I" and "COX II") were expressed in the baculovirus expression system and purified to high levels.
(§2) As described above, human recombinant COX I and COX II were cloned and expressed in a baculovirus system. Partially purified COX I and COX II enzymes were used for screening compounds for their ability to inhibit COX I and COX II activity, as described below.
(§3) Compound (16), in 2 μl DMSO, and control samples (carrier vehicles only) were mixed with COX I or COX II samples (e.g. fractions from the chromatography columns) in polypropylene tubes and preincubated with 2 mM phenol for 5 minutes and then with 1 μM hematin for an additional 5 minutes. The 150 μl reaction mixture consisted of 50 mM Tris --HCl, pH 7.9, 2 mM EDTA, 10% glycerol, 200 μM phenol, 1 μM hematin, 1-25 μl sample and 20 μM 1-[^14 C] arachidonate (80.000-100.000 cpm/tube). After 45 seconds at room temperature, the reaction was terminated by adding 200 μl of 2N HCl and 750 μl water. An aliquot (950 μl) of the reaction mixture was loaded onto a 1 ml C~ Sep-Pak (J. T. Baker, Phillipsburg, N.J.) which had been previously washed with 2-3 ml methanol and equilibrated with 5-6 ml distilled water. Oxygenated products were quantitatively eluted with 3 ml of acetonitrile, H2 O and acetic acid (50:50:0.1, v/v) and the radioactivity in the eluate determined in a scintillation counter.
(§4) Human recombinant 10 min incubation with Compound (16)
(§5) baculovirus 45 sec incubation with 20 μM AA
(§6) partially purified Separation of radioactive products

[2] = molecular target: COX I (Homo sapiens, UniProt P23219); assay: radiometric assay, COX I inhibition (human recombinant, baculovirus expressed, partially purified); type: biochemical; parameters: A 2 Kb fragment containing the coding region of COX I; made in house; host or cells: Sf9 insect cells, baculovirus (cDNA from Oxford Biomedical Research); details: radiometric assay, human recombinant baculovirus expressed enzyme; read-out: COX I IC50 (Table 2)
Experimental: as §1, §2, §3, §4, §5, §6

COX I, sequence (P23219 24-599): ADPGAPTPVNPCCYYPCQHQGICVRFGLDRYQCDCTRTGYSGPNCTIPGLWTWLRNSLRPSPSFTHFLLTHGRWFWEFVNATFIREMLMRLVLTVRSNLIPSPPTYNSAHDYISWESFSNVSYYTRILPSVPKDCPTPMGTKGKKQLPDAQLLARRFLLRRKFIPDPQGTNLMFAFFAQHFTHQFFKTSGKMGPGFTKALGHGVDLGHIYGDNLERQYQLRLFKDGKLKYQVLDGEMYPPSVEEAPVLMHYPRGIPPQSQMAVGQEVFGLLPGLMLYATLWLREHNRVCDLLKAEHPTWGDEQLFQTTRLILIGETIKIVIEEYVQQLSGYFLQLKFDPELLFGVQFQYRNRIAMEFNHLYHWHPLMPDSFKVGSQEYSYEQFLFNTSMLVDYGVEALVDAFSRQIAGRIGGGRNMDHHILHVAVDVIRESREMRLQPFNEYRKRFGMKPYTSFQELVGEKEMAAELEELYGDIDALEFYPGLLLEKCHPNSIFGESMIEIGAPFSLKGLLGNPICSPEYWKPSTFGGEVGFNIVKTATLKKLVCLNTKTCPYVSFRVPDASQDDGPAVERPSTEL

Structure (SMILES)	IC50 [1] [µM]	IC50 [2] [µM]
Cc1cc(Cc2ccc(=O)n(CCO)n2)n(C)c1C(=O)c1ccc(Cl)cc1 [Compound 118, 6-[5-(4-chloro-benzoyl)-1,4,-dimethyl-1H-pyrrol-2-ylmethyl]-2-(2-hydroxy-ethyl)-2H-pyridazin-3-one]	0.8	76
Cc1cc(Cc2ccc(=O)n(CC(N)=O)n2)n(C)c1C(=O)c1ccc(Cl)cc1 [Compound 120, 2-{3-[5-(4-chloro-benzoyl)-1,4,-dimethyl-1H-pyrrol-2-ylmethyl]-6-oxo-6H-pyridazin-1-yl}-acetamide]	0.8	8.9
Cc1cc(Cc2ccc(=O)n(Cc3ccccc3)n2)n(C)c1C(=O)c1ccc(Cl)cc1 [Compound 121, 2-benzyl-6-[5-(4-chloro-benzoyl)-1,4,-dimethyl-1H-pyrrol-2-ylmethyl]-2H-pyridazin-3-one]	0.23	6.3
Cc1cc(Cc2ccc(=O)n(CC#N)n2)n(C)c1C(=O)c1ccc(Cl)cc1 [Compound 122, 6-[5-(4-chloro-benzoyl)-1,4,-dimethyl-1H-pyrrol-2-ylmethyl]-2-(cyano-methyl)-2H-pyridazin-3-one]	0.063	0.074
Cc1cc(Cc2ccc(=O)n(CCF)n2)n(C)c1C(=O)c1ccc(Cl)cc1 [Compound 123, 6-[5-(4-chloro-benzoyl)-1,4-dimethyl-1H-pyrrol-2-ylmethyl]-2-(2-fluoroethyl)-2H-pyridazin-3-one]	< 0.03	3.5
COCCn1nc(Cc2cc(C)c(C(=O)c3ccc(Cl)cc3)n2C)ccc1=O [Compound 124, 6-[5-(4-chloro-benzoyl)-1,4,-dimethyl-1H-pyrrol-2-ylmethyl]-2-(2-methoxy-ethyl)-2H-pyridazin-3-one]	0.54	94
CNC(=O)Cn1nc(Cc2cc(C)c(C(=O)c3ccc(Cl)cc3)n2C)ccc1=O [Compound 125, 2-{3-[5-(4-chloro-benzoyl)-1,4,-dimethyl-1H-pyrrol-2-ylmethyl]-6-oxo-6H-pyridazin-1-yl}--N-methyl acetamide]	1.6	< 10
C#CCn1nc(Cc2cc(C)c(C(=O)c3ccc(Cl)cc3)n2C)ccc1=O [Compound 126, 6-[5-(4-chloro-benzoyl)-1,4-dimethyl-1H-pyrrol-2-ylmethyl]-2-prop-2-ynyl-2H-pyridazin-3-one]	0.97	61.4
C=CCn1nc(Cc2cc(C)c(C(=O)c3ccc(Cl)cc3)n2C)ccc1=O [Compound 127, 2-allyl-6-[5-(4-chloro-benzoyl)-1,4-dimethyl-1H-pyrrol-2-ylmethyl]-2H-pyridazin-3one]	0.67	57
Cc1cc(Cc2ccc(=O)n(Cc3ccc(F)cc3)n2)n(C)c1C(=O)c1ccc(Cl)cc1 [Compound 129, 6-[5-(4-chloro-benzoyl)-1,4,-dimethyl-1H-pyrrol-2-ylmethyl]-2-(4-fluorobenzyl)-2H-pyridazin-3-one]	0.067	3.4
Cc1ccc(C(=O)c2cc(Br)c(Cc3ccc(=O)[nH]n3)n2C)cc1 [Compound 130, 6-[3-bromo-1-methyl-5-(4-methyl-benzoyl)-1H-pyrrol-2-ylmethyl]-2H-pyridazin-3-one]	0.58	> 100
Cc1cc(Cc2ccc(=O)n(CCCl)n2)n(C)c1C(=O)c1ccc(Cl)cc1 [Compound 131, 6-[5-(4-chloro-benzoyl)-1,4-dimethyl-1H-pyrrol-2-ylmethyl]-2-(2-chloroethyl)-2H-pyridazin-3-one]	0.12	5.3
Cc1cc(Cc2ccc(=O)n(Cc3ccc(Cl)cc3)n2)n(C)c1C(=O)c1ccc(Cl)cc1 [Compound 133, 6-[5-(4-chloro-benzoyl)-1,4,-dimethyl-1H-pyrrol-2-ylmethyl]-2-(4-chlorobenzyl)-2H-pyridazin-3-one]	0.07	3.7
CC(=O)OCCn1nc(Cc2cc(C)c(C(=O)c3ccc(Cl)cc3)n2C)ccc1=O [Compound 135, acetic acid 2-{3-[5-(4-chloro-benzoyl)-1,4,-dimethyl-1H-pyrrol-2-ylmethyl]-6-oxo-6H-pyridazin-1-yl}ethyl ester]	0.35	52
Cc1cc(Cc2ccc(=O)n(CCNS(C)(=O)=O)n2)n(C)c1C(=O)c1ccc(Cl)cc1 [Compound 136, N-(2-{3-[5-(4-chloro-benzoyl)-1,4,-dimethyl-1H-pyrrol-2-ylmethyl]-6-oxo-6H-pyridazin-1-yl}-ethyl)-methanesulfonamide]	3.06	829
Cc1cc(Cc2ccc(=O)n(CCCO)n2)n(C)c1C(=O)c1ccc(Cl)cc1 [Compound 140, 6-[5-(4-chloro-benzoyl)-1,4,-dimethyl-1H-pyrrol-2-ylmethyl]-2-(3-hydroxy-1-propyl)-2H-pyridazin-3-one]	0.53	48
Cc1cc(Cc2cc(C)c(=O)[nH]n2)n(C)c1C(=O)c1ccc(Cl)cc1 [Compound 141, 6-[5-(4-chloro-benzoyl)-1,4-dimethyl-1H-pyrrol-2-ylmethyl]-4-methyl-2H-pyridazin-3-one]	0.125	4.9
Cc1cc(Cc2ccc(=O)[nH]n2)n(C)c1C(=O)c1ccc(F)cc1 [Compound 142, 6-[1,4-dimethyl-5-(4-fluoro-benzoyl)-1H-pyrrol-2-ylmethyl]-2H-pyridazin-3-one]	4.16	67
Cc1cc(Cc2ccc(=O)[nH]n2)n(C)c1C(=O)c1cccs1 [Compound 144, 6-[1,4-dimethyl-5-(thienyl-2-carbonyl)-1H-pyrrol-2-ylmethyl]-2H-pyridazin-3-one]	0.59	1
Cc1cc(Cc2ccc(=O)n(CCC#N)n2)n(C)c1C(=O)c1ccc(Cl)cc1 [Compound 145, 6-[5-(4-chloro-benzoyl)-1,4,-dimethyl-1H-pyrrol-2-ylmethyl]-2-(2-cyano-ethyl)-2H-pyridazin-3-one]	0.91	85
Cc1cccc(C)c1Cn1nc(Cc2cc(C)c(C(=O)c3ccc(Cl)cc3)n2C)ccc1=O [Compound 151, 6-[5-(4-chloro-benzoyl)-1,4,-dimethyl-1H-pyrrol-2-ylmethyl]-2-(2,6-dimethylbenzyl)-2H-pyridazin-3-one]	< 0.1	3.8
Cc1cc(Cc2ccc(=O)n(Cc3c(Cl)cccc3Cl)n2)n(C)c1C(=O)c1ccc(Cl)cc1 [Compound 152, 6-[5-(4-chloro-benzoyl)-1,4,-dimethyl-1H-pyrrol-2-ylmethyl]-2-(2,6-dichlorobenzyl)-2H-pyridazin-3-one]	0.14	10
Cc1cc(Cc2ccc(=O)n(CO)n2)n(C)c1C(=O)c1ccc(Cl)cc1 [Compound 153, 6-[5-(4-chloro-benzoyl)-1,4,-dimethyl-1H-pyrrol-2-ylmethyl]-2-(hydroxy-methyl)-2H-pyridazin-3-one]	0.54	> 100
CC[C@H](C)NC(=O)Cn1nc(Cc2cc(C)c(C(=O)c3ccc(Cl)cc3)n2C)ccc1=O [Compound 157, S--N-sec-butyl-2-{3-[5-(4-chloro-benzoyl)-1,4,-dimethyl-1H-pyrrol-2-ylmethyl]-6-oxo-6H-pyridazin-1-yl}-acetamide]	1.63	24.4
CC[C@@H](C)NC(=O)Cn1nc(Cc2cc(C)c(C(=O)c3ccc(Cl)cc3)n2C)ccc1=O [Compound 158, R--N-sec-butyl-2-{3-[5-(4-chloro-benzoyl)-1,4,-dimethyl-1H-pyrrol-2-ylmethyl]-6-oxo-6H-pyridazin-1-yl}-acetamide]	0.68	3.2
